Reference: BindingDB's records for doi:10.1021/jm00069a011 (Boehringer Mannheim, 1993)

Each molecule was assayed against T1, Gag-Pol polyprotein [588-1027]/[588-1147] (Human immunodeficiency virus 1, UniProt P04585) (assay: HIV-1 RT Assay). Details: not given.
T1 construct: 588-1027; 588-1147

SMILES | IC50
O=C1c2ccccc2C2(c3ccccc3)Sc3ccccc3N12 (stereo not drawn) [9-phenyl-8-thia-1-azatetracyclo[7.7.0.0^{2,7}.0^{10,15}]hexadeca-2,4,6,10,12,14-hexaen-16-one] | 40 µM
O=C1c2c(ccc3ccccc23)C2(c3ccccc3)SCCN12 (stereo not drawn) [11-phenyl-12-thia-15-azatetracyclo[8.6.0.0^{2,7}.0^{11,15}]hexadeca-1,3,5,7,9-pentaen-16-one] | > 100 µM
O=C1c2ncccc2C2(c3ccccc3)SCCN12 (stereo not drawn) [2-phenyl-3-thia-6,9-diazatricyclo[6.4.0.0^{2,6}]dodeca-1(12),8,10-trien-7-one] | > 100 µM
O=C1c2ccccc2C2(c3ccccc3)NCCN12 (stereo not drawn) [9b-phenyl-1H,2H,3H,5H,9bH-imidazolidino[2,1-a]isoindol-5-one] | > 100 µM
O=C1c2ccccc2C2(c3ccncc3)SCCN12 (stereo not drawn) [9b-(pyridin-4-yl)-2H,3H,5H,9bH-isoindolo[1,2-b][1,3]thiazol-5-one] | > 30 µM
O=C(O)[C@H]1CSC2(c3ccccc3)c3ccccc3C(=O)N12 (stereo partly drawn) [(3S)-5-oxo-9b-phenyl-2H,3H,5H,9bH-isoindolo[1,2-b][1,3]thiazole-3-carboxylic acid] | > 100 µM
O=C1c2ccccc2C2(c3ccccc3)N1CCS2(=O)=O (stereo not drawn) [9b-phenyl-2H,3H,5H,9bH-1,4000000-isoindolo[1,2-b][1,3]thiazole-1,1,5-trione] | > 10 µM
C[C@@H]1CN2C(=O)c3ccccc3[C@@]2(c2ccccc2)O1 [(2R,9bR)-2-methyl-9b-phenyl-2H,3H,5H,9bH-isoindolo[1,2-b][1,3]oxazol-5-one] | 37.6 µM
O=C1c2cnccc2C2(c3ccccc3)SCCN12 (stereo not drawn) [2-phenyl-3-thia-6,10-diazatricyclo[6.4.0.0^{2,6}]dodeca-1(12),8,10-trien-7-one] | > 100 µM
C[C@H]1CN2C(=O)c3ccccc3[C@@]2(c2ccccc2)O1 [(2S,9bR)-2-methyl-9b-phenyl-2H,3H,5H,9bH-isoindolo[1,2-b][1,3]oxazol-5-one] | > 100 µM
O=C1c2ccccc2C2(c3ccccc3)NCCCN12 (stereo not drawn) [10b-phenyl-1H,2H,3H,4H,6H,10bH-pyrimido[2,1-a]isoindol-6-one] | > 10 µM

Same assay, conditions: pH 7.7; 37 °C

SMILES | IC50
COc1ccc(C23SCCN2C(=O)c2ccccc23)cc1 (stereo not drawn) [9b-(4-methoxyphenyl)-2H,3H,5H,9bH-isoindolo[1,2-b][1,3]thiazol-5-one] | > 30 µM
O=C1c2ccccc2C2(c3ccc[nH]3)SCCN12 (stereo not drawn) [9b-(1H-pyrrol-2-yl)-2H,3H,5H,9bH-isoindolo[1,2-b][1,3]thiazol-5-one] | > 100 µM
